# Laboratory results published in patent US20260327221A1, “INHIBITORS OF CYCLIC GMP-AMP SYNTHASE AND USES THEREOF” (Ventus Therapeutics U.S., Inc., priority 2023, published 2026).
# Molecular target: hcGAS (Homo sapiens, UniProt Q8N884)
# Assay: hcGAS LCMS assay (direct measurement of cGAMP production by LC/MS)
# Format: biochemical
# Details: 4 h incubation with enzyme and substrates; cGAMP production by LC/MS; class symbols; read-out: hcGAS LCMS IC50
# Experimental: cGAS catalyzes the cyclization of ATP and GTP to produce cGAMP, which is the activating ligand of STING. Human cGAS (hcGAS) inhibition can thus be quantified by measuring how much cGAMP is formed either indirectly, by monitoring ATP-depletion as in the hcGAS Kinase-Glo assay (as described below), or directly, such as using the hcGAS LCMS assay (as described below).
# 2. hGAS LCMS Assay Conditions
# Compounds were tested for their hcGAS inhibition activity using direct measurement of cGAMP production by LC/MS. Briefly, compounds were incubated with enzyme and substrates for 4 hours (see Table C), before the reaction was stopped with 3 volumes of 70/30 Acetonitrile/H2O mix containing 0.15 uM cGAMP-^13C10^15N5 as internal standard and mixed for 5 mmn. After centrifugation (3700 rpm, […], […]), 100 uL of each reaction was collected and mixed to equal volume of acetonitrile (MeCN). Samples were then analyzed on Qexactive (Column: XBridge BEH Amide Column, 130 Å, 3.5 μm, 3 mm×50 mm. Mobile phase A: 10 mM Ammonium acetate in 95/5 H2O/MeCN (0.5% DMSO), Mobile phase B: MeCN (0.5% DMSO).
# The results of the assay, expressed as IC50 values, are reported in Table D with the following designations: A represents an IC50 value <0.005 μM (with A1 representing an IC50 value <0.0005 μM, A2 representing an IC50 value ≥0.0005 μM and <0.001 μM, and A3 representing an IC50 value ≥0.001 μM and <0.005 μM); B represents an IC50 value ≥0.005 μM and <0.02 μM; C represents an IC50 value ≥0.02 μM and <0.06 μM; and D represents an IC50 value ≥0.06 μM.
# hcGAS, sequence (Q8N884 whole entry): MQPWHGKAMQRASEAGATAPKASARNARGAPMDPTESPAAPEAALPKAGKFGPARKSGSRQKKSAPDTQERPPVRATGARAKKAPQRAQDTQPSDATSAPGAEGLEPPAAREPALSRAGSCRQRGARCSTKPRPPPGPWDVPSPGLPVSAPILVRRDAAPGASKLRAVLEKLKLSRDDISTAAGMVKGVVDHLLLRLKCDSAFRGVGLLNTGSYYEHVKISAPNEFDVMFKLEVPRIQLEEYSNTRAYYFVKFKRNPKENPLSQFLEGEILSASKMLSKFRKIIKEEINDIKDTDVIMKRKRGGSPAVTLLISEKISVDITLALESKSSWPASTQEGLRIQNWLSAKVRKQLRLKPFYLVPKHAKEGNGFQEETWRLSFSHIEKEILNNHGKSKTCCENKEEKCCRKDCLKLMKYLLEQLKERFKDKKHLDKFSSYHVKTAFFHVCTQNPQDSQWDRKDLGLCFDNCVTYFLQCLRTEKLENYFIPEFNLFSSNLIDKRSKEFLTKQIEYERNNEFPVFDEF
row,Structure (SMILES),IC50 [nM]
1,"COc1cccc(OC)c1-c1cc(C(=O)Nc2nnc(-n3nccc3N)s2)oc(=O)c1OC[C@H]1COCCO1 (single isomer, unassigned) [Compound 43B]",0.5 to 1
2,"COCCOc1c(-c2c(C#N)cccc2OC(F)F)cc(C(=O)Nc2nnc(-n3nccc3N)s2)oc1=O [Compound 74, N-(5-(5-amino-1H-pyrazol-1-yl)-1,3,4-thiadiazol-2-yl)-4-(2-cyano-6-(difluoromethoxy)phenyl)-3-(2-methoxyethoxy)-2-oxo-2H-pyran-6-carboxamide]",0.5 to 1
3,"COc1cccc(OC)c1-c1cc(C(=O)Nc2nnc(-n3nccc3N)s2)oc(=O)c1OC[C@H](C)OC [Compound 53, (S)-N-(5-(5-amino-1H-pyrazol-1-yl)-1,3,4-thiadiazol-2-yl)-4-(2,6-dimethoxyphenyl)-3-(2-methoxypropoxy)-2-oxo-2H-pyran-6-carboxamide]",< 0.5
4,"COCCOc1c(-c2c(C#N)cccc2COC)cc(C(=O)Nc2nnc(-n3nccc3N)s2)oc1=O [Compound 39, N-(5-(5-amino-1H-pyrazol-1-yl)-1,3,4-thiadiazol-2-yl)-4-(2-cyano-6-(methoxymethyl)phenyl)-3-(2-methoxyethoxy)-2-oxo-2H-pyran-6-carboxamide]",1 to 5
5,"COc1cccc(OC)c1-c1cc(C(=O)Nc2nnc(-n3nccc3N)s2)oc(=O)c1OC[C@H](CO)N1CCSCC1 [79B*, (S)-N-(5-(5-amino-1H-pyrazol-1-yl)-1,3,4-thiadiazol-2-yl)-4-(2,6-dimethoxyphenyl)-3-(3-hydroxy-2-thiomorpholinopropoxy)-2-oxo-2H-pyran-6-carboxamide]",1 to 5
6,"COc1c(-c2ccccc2P(C)(C)=O)cc(C(=O)Nc2nnc(-n3nccc3C)s2)oc1=O [Compound 3, 4-(2-(dimethylphosphoryl)phenyl)-3-methoxy-N-(5-(5-methyl-1H-pyrazol-1-yl)-1,3,4-thiadiazol-2-yl)-2-oxo-2H-pyran-6-carboxamide]",20 to 60
7,COc1cccc(OC)c1-c1cc(C(=O)Nc2nnc(-n3nccc3N)s2)oc(=O)c1OCC1CSCCO1 (stereo not shown) [83A*/83B*],0.5 to 1
8,"COCCOc1c(-c2nc(OC)ccc2OC)cc(C(=O)Nc2nnc(-n3nccc3N)s2)oc1=O [Compound 49, N-(5-(5-amino-1H-pyrazol-1-yl)-1,3,4-thiadiazol-2-yl)-4-(3,6-dimethoxypyridin-2-yl)-3-(2-methoxyethoxy)-2-oxo-2H-pyran-6-carboxamide]",1 to 5
9,COc1cccc(OC)c1-c1cc(C(=O)Nc2nnc(-n3nccc3N)s2)oc(=O)c1OCC1(OC)CCC(O)CC1 (stereo not shown) [99A*/99B*],1 to 5
10,"COc1cccc(OC)c1-c1cc(C(=O)Nc2nnc(-n3nccc3N)s2)oc(=O)c1OCCN1C[C@H]2C[C@@H]1CS2 [93B*, 3-(2-((1R,4R)-2-thia-5-azabicyclo[2.2.1]heptan-5-yl)ethoxy)-N-(5-(5-amino-1H-pyrazol-1-yl)-1,3,4-thiadiazol-2-yl)-4-(2,6-dimethoxyphenyl)-2-oxo-2H-pyran-6-carboxamide]",0.5 to 1
11,"COC[C@@H](O)COc1c(-c2c(OC)cccc2OC)cc(C(=O)Nc2nnc(-n3nccc3N)s2)oc1=O (single isomer, unassigned) [Compound 63B*]",0.5 to 1
12,"COc1cccc(OC)c1-c1cc(C(=O)Nc2nnc(-n3nccc3N)s2)oc(=O)c1OCCN1CCO[C@@H](CSC)C1 [82B*, (R)-N-(5-(5-amino-1H-pyrazol-1-yl)-1,3,4-thiadiazol-2-yl)-4-(2,6-dimethoxyphenyl)-3-(2-(2-((methylthio)methyl)morpholino)ethoxy)-2-oxo-2H-pyran-6-carboxamide]",0.5 to 1
13,"COc1cccc(OC)c1-c1cc(C(=O)Nc2nnc(-n3nccc3N)s2)oc(=O)c1O[C@@H](CO)CN1CCSCC1 [81B*, (R)-N-(5-(5-amino-1H-pyrazol-1-yl)-1,3,4-thiadiazol-2-yl)-4-(2,6-dimethoxyphenyl)-3-((1-hydroxy-3-thiomorpholinopropan-2-yl)oxy)-2-oxo-2H-pyran-6-carboxamide]",1 to 5
14,"COCCOCCOc1c(-c2c(OC)cccc2OC)cc(C(=O)Nc2nnc(-n3nccc3N)s2)oc1=O [Compound 30, N-(5-(5-amino-1H-pyrazol-1-yl)-1,3,4-thiadiazol-2-yl)-4-(2,6-dimethoxyphenyl)-3-(2-(2-methoxyethoxy)ethoxy)-2-oxo-2H-pyran-6-carboxamide]",0.5 to 1
15,"COc1cccc(OC)c1-c1cc(C(=O)Nc2nnc(-n3nccc3N)s2)oc(=O)c1OCCOC1CC(O)C1 (stereo not shown) [102A*, N-(5-(5-amino-1H-pyrazol-1-yl)-1,3,4-thiadiazol-2-yl)-4-(2,6-dimethoxyphenyl)-3-(2-((1s,3s)-3-hydroxycyclobutoxy)ethoxy)-2-oxo-2H-pyran-6-carboxamide]",0.5 to 1
16,"COc1cccc(OC)c1-c1cc(C(=O)Nc2nnc(-n3nccc3N)s2)oc(=O)c1OCC1(OC)CC1 [Compound 42, N-(5-(5-amino-1H-pyrazol-1-yl)-1,3,4-thiadiazol-2-yl)-4-(2,6-dimethoxyphenyl)-3-((1-methoxycyclopropyl)methoxy)-2-oxo-2H-pyran-6-carboxamide]",0.5 to 1
17,"COc1cccc(OC)c1-c1cc(C(=O)Nc2nnc(-n3nccc3N)s2)oc(=O)c1OCCN1CC2(CSC2)C1 [Compound 65, 3-(2-(2-thia-6-azaspiro[3.3]heptan-6-yl)ethoxy)-N-(5-(5-amino-1H-pyrazol-1-yl)-1,3,4-thiadiazol-2-yl)-4-(2,6-dimethoxyphenyl)-2-oxo-2H-pyran-6-carboxamide]",0.5 to 1
18,"COC[C@H](O)COc1c(-c2c(OC)cccc2OC)cc(C(=O)Nc2nnc(-n3nccc3N)s2)oc1=O [Compound 63A*, (S)—N-(5-(5-amino-1H-pyrazol-1-yl)-1,3,4-thiadiazol-2-yl)-4-(2,6-dimethoxyphenyl)-3-(2-hydroxy-3-methoxypropoxy)-2-oxo-2H-pyran-6-carboxamide]",0.5 to 1
19,"COc1cccc(OC)c1-c1cc(C(=O)Nc2nnc(-n3nccc3N)s2)oc(=O)c1O[C@H]1CC[C@@H](O)CC1 [Compound 108B, N-(5-(5-amino-1H-pyrazol-1-yl)-1,3,4-thiadiazol-2-yl)-4-(2,6-dimethoxyphenyl)-3-(((1s,4s)-4-hydroxycyclohexyl)oxy)-2-oxo-2H-pyran-6-carboxamide]",1 to 5
20,"COc1cccc(OC)c1-c1cc(C(=O)Nc2nnc(-n3nccc3N)s2)oc(=O)c1OC[C@H](CO)OC [38A*, (S)-N-(5-(5-amino-1H-pyrazol-1-yl)-1,3,4-thiadiazol-2-yl)-4-(2,6-dimethoxyphenyl)-3-(3-hydroxy-2-methoxypropoxy)-2-oxo-2H-pyran-6-carboxamide]",0.5 to 1
21,"COc1cccc(OC)c1-c1cc(C(=O)Nc2nnc(-n3nccc3N)s2)oc(=O)c1O[C@@H]1CCOC1 [52B*, (R)-N-(5-(5-amino-1H-pyrazol-1-yl)-1,3,4-thiadiazol-2-yl)-4-(2,6-dimethoxyphenyl)-2-oxo-3-((tetrahydrofuran-3-yl)oxy)-2H-pyran-6-carboxamide]",0.5 to 1
22,"COCC(COC)Oc1c(-c2c(OC)cccc2OC)cc(C(=O)Nc2nnc(-n3nccc3N)s2)oc1=O [Compound 20, N-(5-(5-amino-1H-pyrazol-1-yl)-1,3,4-thiadiazol-2-yl)-4-(2,6-dimethoxyphenyl)-3-((1,3-dimethoxypropan-2-yl)oxy)-2-oxo-2H-pyran-6-carboxamide]",1 to 5
